Converted amounts (≈) assume the structure as drawn.
How the values were obtained:
Staphylococcus aureus [1] = assay: Antibacterial activity against methicillin-resistant Staphylococcus aureus HK5996/08 after 24 hrs by broth microdilution method; assay type: functional; settings: HK5996/08, 24 h
Staphylococcus aureus [2] = assay: Antibacterial activity against Staphylococcus aureus ATCC 6538 after 48 hrs by broth microdilution method; assay type: functional; settings: ATCC 6538, 48 h
Enterococcus sp. [3] = assay: Antibacterial activity against Enterococcus sp. HK14365/08 after 48 hrs by broth microdilution method; assay type: functional; settings: HK14365/08, 48 h
Klebsiella pneumoniae [4] = assay: Antibacterial activity against extended spectrum beta-lactamase producing Klebsiella pneumoniae HK14368/08 after 24 hrs by broth microdilution method; assay type: functional; settings: HK14368/08, 24 h
A-431 = assay: Cytotoxicity against human A431 cells assessed as cell viability after 48 hrs by MTS assay; assay type: cell-based; settings: A-431, 48 h
Klebsiella pneumoniae [5] = assay: Antibacterial activity against Klebsiella pneumoniae HK11750/08 after 24 hrs by broth microdilution method; assay type: functional; settings: HK11750/08, 24 h
Pseudomonas aeruginosa [6] = assay: Antibacterial activity against Pseudomonas aeruginosa ATCC 9027 after 24 hrs by broth microdilution method; assay type: functional; settings: ATCC 9027, 24 h
[7] = Cytotoxicity against MDCK cells assessed as cell viability at 30 uM after 48 hrs by MTS assay relative to control; assay type: cell-based, Canis lupus familiaris; settings: dog, read-out: Activity
Enterococcus sp. [8] = assay: Antibacterial activity against Enterococcus sp. HK14365/08 after 24 hrs by broth microdilution method; assay type: functional; settings: HK14365/08, 24 h
[9] = Cytotoxicity against human HuH7 cells assessed as cell viability at 30 uM after 48 hrs by MTS assay relative to control; assay type: cell-based, Huh-7; settings: read-out: Activity
Escherichia coli [10] = assay: Antibacterial activity against Escherichia coli ATCC 8739 after 48 hrs by broth microdilution method; assay type: functional; settings: ATCC 8739, 48 h
Mycobacterium avium [11] = assay: Antimycobacterial activity against Mycobacterium avium CNCTC My 330/88 after 14 days by micromethod; assay type: functional; settings: CNCTC My 330/88, 336 h
Candida albicans [12] = assay: Antifungal activity against Candida albicans ATCC 44859 after 24 hrs by broth microdilution method; assay type: functional; settings: ATCC 44859, 24 h
[13] = test system: Mycobacterium tuberculosis; assay: Antimycobacterial activity against Mycobacterium tuberculosis CNCTC My 331/88 after 14 days by micromethod; assay type: functional; settings: CNCTC My 331/88, 336 h
Mycobacterium kansasii [14] = assay: Antimycobacterial activity against Mycobacterium kansasii CNCTC My 235/80 after 14 days by micromethod; assay type: functional; settings: CNCTC My 235/80, 336 h
Trichosporon asahii [15] = assay: Antifungal activity against Trichosporon asahii 1188 after 24 hrs by broth microdilution method; assay type: functional; settings: Trichosporon asahii, 1188, 24 h
Mycobacterium kansasii [16] = assay: Antimycobacterial activity against Mycobacterium kansasii CNCTC My 235/80 after 21 days by micromethod; assay type: functional; settings: CNCTC My 235/80, 504 h
Staphylococcus aureus [17] = assay: Antibacterial activity against Staphylococcus aureus ATCC 6538 after 24 hrs by broth microdilution method; assay type: functional; settings: ATCC 6538, 24 h
Aspergillus fumigatus [18] = assay: Antifungal activity against Aspergillus fumigatus 231 after 24 hrs by broth microdilution method; assay type: functional; settings: Aspergillus fumigatus, 231, 24 h
Staphylococcus aureus [19] = assay: Antibacterial activity against methicillin-resistant Staphylococcus aureus HK5996/08 after 48 hrs by broth microdilution method; assay type: functional; settings: HK5996/08, 48 h
Lichtheimia corymbifera [20] = assay: Antifungal activity against Absidia corymbifera 272 after 24 hrs by broth microdilution method; assay type: functional; settings: Lichtheimia corymbifera, 272, 24 h
[21] = test system: Staphylococcus epidermidis; assay: Antibacterial activity against Staphylococcus epidermidis HK6996/08 after 48 hrs by broth microdilution method; assay type: functional; settings: HK6996/08, 48 h
Mycobacterium kansasii [22] = assay: Antimycobacterial activity against Mycobacterium kansasii 6509/96 clinical isolate after 7 days by micromethod; assay type: functional; settings: 6509/96, 168 h
[23] = Cytotoxicity against human HepG2 cells assessed as cell viability at 30 uM after 48 hrs by MTS assay relative to control; assay type: cell-based; settings: read-out: Activity
[24] = Cytotoxicity against human A431 cells assessed as cell viability at 30 uM after 48 hrs by MTS assay relative to control; assay type: cell-based, A-431; settings: read-out: Activity
Pichia kudriavzevii [25] = assay: Antifungal activity against Candida krusei E28 after 24 hrs by broth microdilution method; assay type: functional; settings: E28, 24 h
HepG2 = assay: Cytotoxicity against human HepG2 cells assessed as cell viability after 48 hrs by MTS assay; assay type: cell-based; settings: HepG2, 48 h
[26] = test system: Trichophyton mentagrophytes; assay: Antifungal activity against Trichophyton mentagrophytes 445 after 120 hrs by broth microdilution method; assay type: functional; settings: Trichophyton mentagrophytes, 445, 120 h
[27] = test system: Mycobacterium tuberculosis; assay: Antimycobacterial activity against Mycobacterium tuberculosis CNCTC My 331/88 after 21 days by micromethod; assay type: functional; settings: CNCTC My 331/88, 504 h
Candida tropicalis [28] = assay: Antifungal activity against Candida tropicalis 156 after 48 hrs by broth microdilution method; assay type: functional; settings: Candida tropicalis, 156, 48 h
Lichtheimia corymbifera [29] = assay: Antifungal activity against Absidia corymbifera 272 after 48 hrs by broth microdilution method; assay type: functional; settings: Lichtheimia corymbifera, 272, 48 h
Trichosporon asahii [30] = assay: Antifungal activity against Trichosporon asahii 1188 after 48 hrs by broth microdilution method; assay type: functional; settings: Trichosporon asahii, 1188, 48 h
Aspergillus fumigatus [31] = assay: Antifungal activity against Aspergillus fumigatus 231 after 48 hrs by broth microdilution method; assay type: functional; settings: Aspergillus fumigatus, 231, 48 h
Huh-7 = assay: Cytotoxicity against human HuH7 cells assessed as cell viability after 48 hrs by MTS assay; assay type: cell-based; settings: Huh-7, 48 h
Candida albicans [32] = assay: Antifungal activity against Candida albicans ATCC 44859 after 48 hrs by broth microdilution method; assay type: functional; settings: ATCC 44859, 48 h
Nakaseomyces glabratus [33] = assay: Antifungal activity against Candida glabrata 20/I after 24 hrs by broth microdilution method; assay type: functional
Mycobacterium kansasii [34] = assay: Antimycobacterial activity against Mycobacterium kansasii 6509/96 clinical isolate after 14 days by micromethod; assay type: functional; settings: 6509/96, 336 h
[35] = test system: Trichophyton mentagrophytes; assay: Antifungal activity against Trichophyton mentagrophytes 445 after 72 hrs by broth microdilution method; assay type: functional; settings: Trichophyton mentagrophytes, 445, 72 h
[36] = Selectivity index, ratio of IC50 for human HepG2 cells to MIC for Mycobacterium tuberculosis; assay type: toxicity; settings: read-out: Selectivity Index
Candida tropicalis [37] = assay: Antifungal activity against Candida tropicalis 156 after 24 hrs by broth microdilution method; assay type: functional; settings: Candida tropicalis, 156, 24 h
MDCK = assay: Cytotoxicity against MDCK cells assessed as cell viability after 48 hrs by MTS assay; assay type: cell-based; settings: Canis lupus familiaris
[38] = test system: Staphylococcus epidermidis; assay: Antibacterial activity against Staphylococcus epidermidis HK6996/08 after 24 hrs by broth microdilution method; assay type: functional; settings: HK6996/08, 24 h
Mycobacterium kansasii [39] = assay: Antimycobacterial activity against Mycobacterium kansasii CNCTC My 235/80 after 7 days by micromethod; assay type: functional; settings: CNCTC My 235/80, 168 h
Nakaseomyces glabratus [40] = assay: Antifungal activity against Candida glabrata 20/I after 48 hrs by broth microdilution method; assay type: functional
Escherichia coli [41] = assay: Antibacterial activity against Escherichia coli ATCC 8739 after 24 hrs by broth microdilution method; assay type: functional; settings: ATCC 8739, 24 h
Pseudomonas aeruginosa [42] = assay: Antibacterial activity against Pseudomonas aeruginosa ATCC 9027 after 48 hrs by broth microdilution method; assay type: functional; settings: ATCC 9027, 48 h
Mycobacterium avium [43] = assay: Antimycobacterial activity against Mycobacterium avium CNCTC My 330/88 after 21 days by micromethod; assay type: functional; settings: CNCTC My 330/88, 504 h
Mycobacterium kansasii [44] = assay: Antimycobacterial activity against Mycobacterium kansasii 6509/96 clinical isolate after 21 days by micromethod; assay type: functional; settings: 6509/96, 504 h
Pichia kudriavzevii [45] = assay: Antifungal activity against Candida krusei E28 after 48 hrs by broth microdilution method; assay type: functional; settings: E28, 48 h
Klebsiella pneumoniae [46] = assay: Antibacterial activity against Klebsiella pneumoniae HK11750/08 after 48 hrs by broth microdilution method; assay type: functional; settings: HK11750/08, 48 h
Klebsiella pneumoniae [47] = assay: Antibacterial activity against extended spectrum beta-lactamase producing Klebsiella pneumoniae HK14368/08 after 48 hrs by broth microdilution method; assay type: functional; settings: HK14368/08, 48 h

O=[N+]([O-])c1cc(-n2nnnc2SCc2ccc(Cl)cc2)cc([N+](=O)[O-])c1
MIC (Staphylococcus aureus [1]): 125 µM (≈ 49.1 µg/mL) | MIC (Staphylococcus aureus [2]): 125 µM (≈ 49.1 µg/mL) | MIC (Enterococcus sp. [3]): > 500 µM | MIC (Klebsiella pneumoniae [4]): > 500 µM | IC50 (A-431): > 30 µM | MIC (Klebsiella pneumoniae [5]): > 500 µM | MIC (Pseudomonas aeruginosa [6]): > 500 µM | viability at 48 h, 30 µM [7]: 85% | MIC (Enterococcus sp. [8]): > 500 µM | viability at 48 h, 30 µM [9]: 115% | MIC (Escherichia coli [10]): > 500 µM | MIC (Mycobacterium avium [11]): 8 µM (≈ 3.14 µg/mL) | MIC (Candida albicans [12]): > 500 µM | MIC [13]: 0.5 µM (≈ 0.196 µg/mL) | MIC (Mycobacterium kansasii [14]): 2 µM (≈ 0.786 µg/mL) | MIC (Trichosporon asahii [15]): > 500 µM | MIC (Mycobacterium kansasii [16]): 4 µM (≈ 1.57 µg/mL) | MIC (Staphylococcus aureus [17]): 125 µM (≈ 49.1 µg/mL) | MIC (Aspergillus fumigatus [18]): > 500 µM | MIC (Staphylococcus aureus [19]): 125 µM (≈ 49.1 µg/mL) | MIC (Lichtheimia corymbifera [20]): > 500 µM | MIC [21]: 500 µM (≈ 196 µg/mL) | MIC (Mycobacterium kansasii [22]): 0.5 µM (≈ 0.196 µg/mL) | viability at 48 h, 30 µM [23]: 134% | viability at 48 h, 30 µM [24]: 74% | MIC (Pichia kudriavzevii [25]): > 500 µM | IC50 (HepG2): > 30 µM | MIC [26]: > 500 µM | MIC [27]: 0.5 µM (≈ 0.196 µg/mL) | MIC (Candida tropicalis [28]): > 500 µM | MIC (Lichtheimia corymbifera [29]): > 500 µM | MIC (Trichosporon asahii [30]): > 500 µM | MIC (Aspergillus fumigatus [31]): > 500 µM | IC50 (Huh-7): > 30 µM | MIC (Candida albicans [32]): > 500 µM | MIC (Nakaseomyces glabratus [33]): > 500 µM | MIC (Mycobacterium kansasii [34]): 1 µM (≈ 0.393 µg/mL) | MIC [35]: > 500 µM | selectivity ratio [36]: > 60 | MIC (Candida tropicalis [37]): > 500 µM | IC50 (MDCK): > 30 µM | MIC [38]: 500 µM (≈ 196 µg/mL) | MIC (Mycobacterium kansasii [39]): 1 µM (≈ 0.393 µg/mL) | MIC (Nakaseomyces glabratus [40]): > 500 µM | MIC (Escherichia coli [41]): > 500 µM | MIC (Pseudomonas aeruginosa [42]): > 500 µM | MIC (Mycobacterium avium [43]): 16 µM (≈ 6.28 µg/mL) | MIC (Mycobacterium kansasii [44]): 1 µM (≈ 0.393 µg/mL) | MIC (Pichia kudriavzevii [45]): > 500 µM | MIC (Klebsiella pneumoniae [46]): > 500 µM | MIC (Klebsiella pneumoniae [47]): > 500 µM
